Patent publication US7414069B2, “Antituberculosis compounds, Hirsutellones A, B, and C” (National Center for Genetic Engineering & Biotechnology, …, priority 2004, dated 2008)
Converted amounts (≈) assume the structure as drawn.

What was measured:
[1] = Cytotoxicity against Vero cells (sulforhodamine B staining); assay type: cell-based; conditions: African green monkey, Vero cells (ATCC CCL-81), 37° C.
Description: (§1) Hirsutellones A, B and C were tested for cytotoxicity by incubating with Vero cells (African green monkey kidney cell line from American Type Culture Collection USA; ATCC # CCL-81). Each compound was dissolved in dimethyl sulfoxide and then diluted in the culture medium of the Vero cells (Eagle's Minimum Essential with 10% heat-inactivated fetal bovine serum and antibiotics). The Vero cells and the compound were incubated together in a 96-well microplate at a cell concentration of 1.9×10^4 cells/190 μl/well, in a CO2 incubator at 37° C. for 3 days.
(§2) The numbers of the cells in the wells were then determined by a staining method (Skehan, P., et al., J. Natl Cancer Inst., 82:1107-1112 (1990)). The cells were initially fixed by 50% cold trichloroacetic acid (TCA) at 4° C. for 30 minutes. The cells were then washed with water 4 times. After drying, the cells were stained with 0.05% sulforhodamine B in 1% acetic acid for 30 minutes, washed with ^1% acetic acid 4 times and dried at room temperature. Finally, 10 mM Tris-base pH 10 was added. The absorbance at 510 nm of test wells was measured by an ELISA microplate reader. The absorbance was proportionate to the number of the viable cells in the wells. The toxicity level of the compound was recorded as the concentration that rendered the number of viable cells to be less than half of the negative control wells, which contained the cells with DMSO but not the compound. Ellipticine was used as a positive control. The toxicity level of each compound against Vero cells was expressed as IC50.

[2] = Cytotoxicity against NCI-H187 cells (sulforhodamine B staining); assay type: cell-based; conditions: human, NCI-H187 cells (lung cancer, ATCC CRL-5804), starting concentration 20 μg/ml
Description: as §1, §2
(§3) Hirsutellones were also tested for cytotoxicity against multiple human cancer cell lines, to study the effects on human cells in vitro. The cancer cell lines included KB cells (oral epidermoid carcinoma; ATCC # CCL-17), BC cells (breast cancer) and NCI-H187 cells (lung cancer; ATCC # CRL-5804) The same protocol as that for the cytotoxicity assay against Vero cells was used, except for the starting compound concentration which was 20 μg/ml.

[3] = tested on: Mycobacterium tuberculosis H37Ra strain (ATCC 25166); test: Microplate Alamar Blue Assay (MABA), antituberculous activity; assay type: cell-based; conditions: M. tuberculosis H37Ra, two-fold serial dilution from 50 μg/ml
Description: Preparation of Mycobacteria Mycobacterium tuberculosis H37Ra strain (ATCC 25166) was grown in 100 ml of Middlebrook 7H9 broth supplemented with 0.2% glycerol, 1.0 g/l of casitone, 10% OADC, and 0.05% Tween 80. The complete medium was referred to as 7H9GC-Tween. The bacteria were incubated in 500-ml flasks on a rotary shaker at 200 rpm and 37° C. until the optical density at 550 nm reached 0.4-0.5. The bacteria were washed twice with phosphate-buffered saline and then suspended in 20 ml of phosphate-buffered saline. The suspension was passed through an 8-μm-pore-size filter to eliminate clumps. The number of bacteria in the filtrates were counted by plating the bacteria in Middlebrook 7H10 agar. The filtrates were stored at −80° C.
Microplate Alamar Blue Assays (MABA) Anti-tuberculous testing was performed in a 96-well microplate as previously described (Collins, L. and Franzblau, S. G., Antimicrob. Agents Chemother., 41:1004-1009 (1997)). Outer perimeter wells were filled with sterile water to prevent dehydration of the test wells. Crude extracts were initially diluted with dimethyl sulfoxide, and then were diluted to a concentration of 400 μg/ml in Middlebrook 7H9 medium containing 0.2% V/V glycerol and 1.0 g/l casitone (7H9GC). The wells in rows B to G in columns 2, 4, 5, 6, 8, 9, 10 of the microplate were filled with 100 μl of 7H9GC. The wells in column 11 were inoculated with 200 μl of the medium to serve as media controls (M). Bacteria (only) controls (B) were set-up in column 10. One hundred microliters of each crude extract solution (400 μg/ml) were added to three wells in one row in columns 2 (or 6), 3 (or 7) and 4 (or 8). One hundred microliters were transferred from column 4 (or 8) to column 5 (or 9), the contents of the wells in column 5 (or 9) were mixed well and then 100 μl of mixed medium were discarded. The wells in columns 2 and 6 served as test sample controls.
Frozen bacterial inocula were diluted 1:200 in 7H9GC medium. One hundred microliters of the bacteria were added to the wells in rows B to G in columns 3 (or 7), 4 (or 8), 5 (or 9) and 10, resulting in final bacterial titers of approximately 5×10^4 CFU/ml. The wells in column 10 served as bacteria (only) controls (B). Final concentrations of extracts were 200, 100 and 50 μg/ml in columns 3 (or 7), 4 (or 8) and 5 (or 9), respectively.
The plates were sealed with Parafilm and were incubated at 37° C. for 5 days. At day 6 of incubation, 20 μl of Alamar Blue reagent and 12.5 μl of 20% Tween 80 were added to well B10 (B) and B11 (M). The plates were re-incubated at 37° C. for 24 h. […] If the B wells became pink by 24 h, reagent was added to the entire plate. If the well remained blue, the additional M and B wells were tested daily until a color change occurred at which time reagents were added to all remaining wells. The microplates were resealed with Parafilm and were then incubated at 37° C. The results were recorded 24 h after adding reagent.
Blue color in the well was interpreted as no growth, reflecting the activity of the test compound in the well. A pink color was scored as growth and reflected the lack of activity of the test compound. A few wells appeared violet after 24 h of incubation, but they invariably changed to pink after extra day of incubation and thus were scored as growth (while the adjacent blue wells remained blue). […]

[4] = Cytotoxicity against KB cells (sulforhodamine B staining); assay type: cell-based; conditions: human, KB cells (oral epidermoid carcinoma, ATCC CCL-17), starting concentration 20 μg/ml
Description: as §1, §2, §3

[5] = Cytotoxicity against BC cells (sulforhodamine B staining); assay type: cell-based; conditions: human, BC cells (breast cancer), starting concentration 20 μg/ml
Description: as §1, §2, §3

## C=CC1C=CC2C3CC(C)CCC3C3Oc4ccc(cc4)CC4(O)CC(C(=O)N4)C(=O)C1C23 (centres unmarked) [Hirsutellone B]
[1]
  IC50 at 3 days: > 50 µg/mL
other
  melting point: 261 to 263 °C (dec.)
[2]
  IC50 at 3 days: 6 µg/mL (≈ 13.4 µM)
[3]
  MIC: 0.78 µg/mL (≈ 1.74 µM)
[4]
  IC50 at 3 days: > 20 µg/mL
[5]
  IC50 at 3 days: > 20 µg/mL

## C=CC1C=CC2C3CC(C)CCC3C3Oc4ccc(cc4)CC4C(=O)NC(=O)C4C(=O)C1C23 (centres unmarked) [Hirsutellone A]
[1]
  IC50 at 3 days: > 50 µg/mL
[2]
  IC50 at 3 days: > 20 µg/mL
[3]
  MIC: 0.78 µg/mL (≈ 1.75 µM)
[4]
  IC50 at 3 days: > 20 µg/mL
[5]
  IC50 at 3 days: > 20 µg/mL

## C=CC1C=CC2C3CC(C)CCC3C3Oc4ccc(cc4)CC4(O)NC(=O)C5(OC45)C(=O)C1C23 (centres unmarked) [Hirsutellone C]
[1]
  IC50 at 3 days: 12 µg/mL (≈ 26 µM)
other
  melting point: 234 to 235 °C (dec.)
[2]
  IC50 at 3 days: 8.3 µg/mL (≈ 18 µM)
[3]
  MIC: 0.78 µg/mL (≈ 1.69 µM)
[4]
  IC50 at 3 days: 4.6 µg/mL (≈ 9.97 µM)
[5]
  IC50 at 3 days: 3.2 µg/mL (≈ 6.93 µM)

## NNC(=O)c1ccncc1 [isoniazid, reference compound]
[3]
  MIC: 0.04 µg/mL (≈ 0.292 µM)

## NC[C@H]1O[C@H](O[C@H]2[C@H](O)[C@@H](O[C@H]3O[C@H](CO)[C@@H](O)[C@H](N)[C@H]3O)[C@H](N)C[C@@H]2N)[C@H](O)[C@@H](O)[C@@H]1O [kanamycin, reference compound]
[3]
  MIC: 2.5 µg/mL (≈ 5.16 µM)

## Cc1c2ccncc2c(C)c2c1[nH]c1ccccc12 [Ellipticine, reference compound]
[1]
  IC50 at 3 days: 0.4 µg/mL (≈ 1.62 µM)
[2]
  IC50 at 3 days: 0.39 µg/mL (≈ 1.58 µM)
[4]
  IC50 at 3 days: 1.3 µg/mL (≈ 5.28 µM)
[5]
  IC50 at 3 days: 1.5 µg/mL (≈ 6.09 µM)
